The results in this text go back to ChEMBL document CHEMBL4373639, “How mithramycin stereochemistry dictates its structure and DNA binding function” (Medchemcomm, 2019).

The nature of the assay: Binding affinity to dsDNA oligomer GAGGCCTC (unknown origin) assessed as binding constant incubated for 16 hrs in presence of […] by fluorescence based assay.

As a reminder, the Kd is the equilibrium constant for the complex coming apart. Consider `CO[C@H](C(=O)[C@@H](O)[C@@H](C)O)[C@@H]1Cc2cc3cc(O[C@H]4C[C@@H](O[C@H]5C[C@@H](O)[C@H](O)[C@@H](C)O5)[C@H](O)[C@@H](C)O4)c(C)c(O)c3c(O)c2C(=O)[C@H]1O[C@H]1C[C@@H](O[C@H]2C[C@@H](O[C@H]3C[C@](C)(O)[C@H](O)[C@@H](C)O3)[C@H](O)[C@@H](C)O2)[C@H](O)[C@@H](C)O1`, for which the Kd is < 1000 nM.

For the molecule `COC(=O)[C@H](Cc1ccccc1)NC(=O)[C@@H](OC)[C@@H]1Cc2cc3cc(O[C@H]4C[C@@H](O[C@H]5C[C@@H](O)[C@H](O)[C@@H](C)O5)[C@H](O)[C@@H](C)O4)c(C)c(O)c3c(O)c2C(=O)[C@H]1O[C@H]1C[C@@H](O[C@H]2C[C@@H](O[C@H]3C[C@](C)(O)[C@H](O)[C@@H](C)O3)[C@H](O)[C@@H](C)O2)[C@H](O)[C@@H](C)O1`, the Kd was found to be 1600 nM.
